Data from patent US6211373A, “Phenyl urea antagonists of the IL-8 receptor” (SmithKline Beecham Corporation, priority 1998, dated 2001).

Biological target: T1, recombinant human IL-8 type b receptor (IL-8 Rb, Type II, permissive receptor) (Homo sapiens, UniProt P25025)
T1 construct: membranes
T1 sequence (P25025 1-360): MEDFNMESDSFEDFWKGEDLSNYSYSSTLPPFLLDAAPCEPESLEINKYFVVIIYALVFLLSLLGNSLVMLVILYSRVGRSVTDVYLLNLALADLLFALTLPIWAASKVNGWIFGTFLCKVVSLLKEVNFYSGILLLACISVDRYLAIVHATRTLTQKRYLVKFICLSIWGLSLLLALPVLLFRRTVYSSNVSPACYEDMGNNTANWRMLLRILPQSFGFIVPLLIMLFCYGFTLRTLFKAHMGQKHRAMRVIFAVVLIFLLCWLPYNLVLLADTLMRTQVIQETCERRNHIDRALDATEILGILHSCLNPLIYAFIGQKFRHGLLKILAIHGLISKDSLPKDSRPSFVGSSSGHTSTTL
Test: Receptor binding assay, [125I] IL-8, permissive model
Description: [^125 I] IL-8 (human recombinant) was obtained from Amersham Corp., Arlington Heights, Ill., with specific activity 2000 Ci/mmol. Gro-a was obtained from NEN-New England Nuclear. All other chemicals were of analytical grade. High levels of recombinant human IL-8 type a and b receptors were individually expressed in Chinese hamster ovary cells as described previously (Holmes, et al., Science, 1991, 253, 1278). The Chinese hamster ovary membranes were homogenized according to a previously described protocol (Haour, et al., J Biol Chem., 249 pp 2195-2205 (1974)). Except that the homogenization buffer was changed to 10 mM Tris-HCL, 1 mM MgSO4, 0.5 mM EDTA (ethylene-diaminetetra-acetic acid), 1 mMPMSF (a-toluenesulphonyl fluoride), 0.5 mg/L Leupeptin, pH 7.5. Membrane protein concentration was determined using Pierce Co. micro-assay kit using bovine serum albumin as a standard. All assays were performed in a 96-well micro plate format. Each reaction mixture contained ^125 I IL-8 (0.25 nM) or ^125 I Gro-a and 0.5 μg/mL of IL-8Ra or 1.0 μg/mL of IL-8Rb membranes in 20 mM Bis-Trispropane and 0.4 mM Tris HCl buffers, pH 8.0, containing 1.2 mM MgSO4, 0.1 mM EDTA, 25 mM NaCl and 0.03% CHAPS. […] The filter was then dried and counted on the Betaplate liquid scintillation counter. […]

SMILES: Cc1cc(Cl)ccc1NC(=O)Nc1ccccc1C(=O)O [1-(2-Carboxyphenyl)-3-(4-chloro-2-methylphenyl)urea]
- level at which found to be active (IL-8 receptor inhibition): about 75 μg/mL
